Reference: ChEMBL document CHEMBL1150755, “2,4,5-trimethoxystyrene, a bioactive component of the bark of Duguetia panamensis” (J Nat Prod, 1988)
In brackets after ≈: the same amount, converted by molar mass.

What was measured:
[1] = Cytotoxicity against mouse 9PS cells; format: functional; settings: read-out: ED50 (the source's name)
[2] = Cytotoxicity against human 9KB cells; format: functional; settings: read-out: ED50 (the source's name)
Artemia = experiment: Toxicity in brine shrimp; format: organism-based; settings: in vivo

## C=Cc1cc(OC)c(OC)cc1OC
[1]
  EC50: 27 µg/mL (≈ 139 µM)
[2]
  EC50: 42 µg/mL (≈ 216 µM)
Artemia
  LC50: 8 ppm
